The results in this text go back to PubChem BioAssay (NCI).

Some test systems named below: DU-145 prostate; EKVX NSCLC; HCC-2998 colon; HS 578T breast; HT29 colon; M14 melanoma; MCF7 breast; PC-3 prostate; RXF 393 renal; SK-OV-3 ovarian.
Holding throughout (test): DTP human tumour cell line panel, 48 h

Each structure is given as a SMILES string.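 Assay format: 96-well plates, 48-hour exposure. Definition used: TGI = concentration required for complete inhibition of growth.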

Take `CCOC(=O)C1=NN(c2ccc([N+](=O)[O-])cc2)[C@@]2(C)C[C@]3(c4ccccc4)N(c4ccc([N+](=O)[O-])cc4)N=C(C(=O)OCC)N3c3ccccc3N12`: the TGI with DU-145 prostate, with EKVX NSCLC, in the experiment with HCC-2998 colon, with HS 578T breast, in the experiment with HT29 colon and in the experiment on M14 melanoma was over 100 µM each time. The TGI in the experiment on MCF7 breast, in the experiment with PC-3 prostate, in the experiment on RXF 393 renal and in the experiment on SK-OV-3 ovarian was over 100 µM each time.

Regarding `CC1(C)Cc2nc3c(cc2C(=O)C1C=N/C(C#N)=C(\N)C#N)C(=O)C(C=N/C(C#N)=C(\N)C#N)C(C)(C)C3` (stereo not given), the TGI in the experiment with DU-145 prostate amounted to 8.44 µM; in the experiment with EKVX NSCLC it was 6.01 µM; in the experiment with HCC-2998 colon it was 10.3 µM; in the experiment on HS 578T breast it was 3.32 µM; in the experiment on HT29 colon, 10.9 µM; in the experiment on M14 melanoma, 3.05 µM. The concentration for total growth inhibition (TGI) in the experiment with MCF7 breast was 6.23 µM; in the experiment on PC-3 prostate, 5.35 µM; in the experiment with RXF 393 renal, 3.04 µM; with SK-OV-3 ovarian, over 34.9 µM.

For `N#CC(Cc1ccccc1)N(CCC1=CCCCC1)Cc1ccccc1` (stereo not given), the TGI in the experiment with DU-145 prostate, in the experiment with EKVX NSCLC, with HCC-2998 colon, in the experiment on HS 578T breast, with HT29 colon and in the experiment with M14 melanoma was over 100 µM throughout. Moreover, the TGI in the experiment on MCF7 breast, in the experiment with PC-3 prostate, in the experiment on RXF 393 renal and in the experiment with SK-OV-3 ovarian was over 100 µM each time.

On to `COc1cc(/C=N/n2c(-c3ccccc3)nn(C(C)=O)c2=O)cc(OC)c1OC`, for which the TGI with DU-145 prostate is over 89.1 µM; in the experiment with EKVX NSCLC, 99.2 µM; with HCC-2998 colon, 16.3 µM; in the experiment on HS 578T breast, over 26.9 µM; with HT29 colon, over 44.3 µM; in the experiment with M14 melanoma, over 58.9 µM. Moreover, the TGI with MCF7 breast was over 37.9 µM; in the experiment with PC-3 prostate, over 81.8 µM; in the experiment with RXF 393 renal it was over 88.4 µM; in the experiment on SK-OV-3 ovarian it was over 39.9 µM.

Regarding `O=C(O)CCSCc1ccccc1`, the TGI in the experiment on DU-145 prostate, in the experiment with EKVX NSCLC, in the experiment on HCC-2998 colon, in the experiment on HS 578T breast, in the experiment with HT29 colon and in the experiment with M14 melanoma was over 100 µM in each case. For the same compound, the TGI in the experiment on MCF7 breast, in the experiment with PC-3 prostate, with RXF 393 renal and in the experiment with SK-OV-3 ovarian was over 100 µM each time.

For `COc1ccc(/C=C2\CCS(=O)(=O)c3ccccc3C2=O)cc1`, the total growth inhibition concentration (TGI) in the experiment on DU-145 prostate was 61 µM; in the experiment on EKVX NSCLC it was 46.4 µM; in the experiment with HCC-2998 colon it was 38.6 µM; in the experiment on HS 578T breast it was 82.8 µM; with HT29 colon, 35.9 µM; in the experiment on M14 melanoma, over 100 µM. Further, the TGI in the experiment on MCF7 breast is over 100 µM; in the experiment on PC-3 prostate, 75.3 µM; in the experiment with RXF 393 renal it was 46.4 µM; in the experiment with SK-OV-3 ovarian it was over 100 µM.

Take `Cc1cccc2c1c(=O)c1c(O)c3c(cc1n2C)OC(C)(C)C=C3`: the total growth inhibition concentration (TGI) in the experiment on DU-145 prostate, in the experiment with EKVX NSCLC, in the experiment with HCC-2998 colon, in the experiment with HS 578T breast, in the experiment on HT29 colon and in the experiment on M14 melanoma was over 10 µM throughout. Besides, the TGI in the experiment with MCF7 breast, with PC-3 prostate, in the experiment with RXF 393 renal and in the experiment on SK-OV-3 ovarian was over 10 µM throughout.

Consider `CCOC(=O)C1(C(=O)OCC)OC(C)=NC1(C(=O)OC)C(=O)OC`, for which the TGI in the experiment on DU-145 prostate, with EKVX NSCLC, with HCC-2998 colon, in the experiment with HS 578T breast, in the experiment on HT29 colon and in the experiment with M14 melanoma was over 100 µM in each case. The TGI with MCF7 breast, in the experiment on PC-3 prostate, with RXF 393 renal and in the experiment with SK-OV-3 ovarian was over 100 µM each time.

Consider `CCOC(=O)C(Cc1ccc(OC(=O)c2ccc(OC)cc2)cc1)NC(=O)C(F)(F)F` (stereo not given), for which the total growth inhibition concentration (TGI) in the experiment on DU-145 prostate, in the experiment on EKVX NSCLC, with HCC-2998 colon, in the experiment on HS 578T breast, in the experiment on HT29 colon and in the experiment with M14 melanoma was over 100 µM throughout. Moreover, the TGI in the experiment on MCF7 breast was over 100 µM; in the experiment with PC-3 prostate it was over 100 µM; in the experiment with RXF 393 renal, 73.2 µM; in the experiment with SK-OV-3 ovarian, over 100 µM.

With `Cn1c(=O)c2c(nc3n2CCCC(=O)N3CC(O)CCl)n(C)c1=O` (stereo not given), the total growth inhibition concentration (TGI) in the experiment with DU-145 prostate, with EKVX NSCLC, in the experiment on HCC-2998 colon, with HS 578T breast, in the experiment with HT29 colon and with M14 melanoma was over 100 µM each time. Moreover, the total growth inhibition concentration (TGI) in the experiment on MCF7 breast, in the experiment on PC-3 prostate, with RXF 393 renal and with SK-OV-3 ovarian was over 100 µM throughout.

On to `CN(/N=C/c1cccc2cccnc12)c1ccc(Cl)cc1[N+](=O)[O-]`, for which the concentration for total growth inhibition (TGI) in the experiment with DU-145 prostate, in the experiment on EKVX NSCLC, in the experiment with HCC-2998 colon, with HS 578T breast, in the experiment with HT29 colon and with M14 melanoma was over 100 µM throughout. The total growth inhibition concentration (TGI) in the experiment on MCF7 breast, with PC-3 prostate, with RXF 393 renal and in the experiment with SK-OV-3 ovarian was over 100 µM in each case.

For `Cc1ccc(O)c(C2=CC(c3cccc(Cl)c3)SC(N)=N2)c1` (stereo not given), the TGI is over 100 µM in the experiment with DU-145 prostate; 61.8 µM in the experiment with EKVX NSCLC; 33.4 µM with HCC-2998 colon; 47.9 µM in the experiment on HS 578T breast; 46.3 µM in the experiment with HT29 colon; 68.3 µM in the experiment with M14 melanoma. The concentration for total growth inhibition (TGI) in the experiment on MCF7 breast was over 100 µM; with PC-3 prostate, 73.6 µM; in the experiment with RXF 393 renal, 63.6 µM; in the experiment on SK-OV-3 ovarian, 80 µM.

In the case of `CCOC(=O)C1=CCOc2cc(N(C)C)ccc21`, the TGI in the experiment on DU-145 prostate, in the experiment on EKVX NSCLC, in the experiment on HCC-2998 colon, with HS 578T breast, with HT29 colon and in the experiment on M14 melanoma was over 100 µM in each case. The total growth inhibition concentration (TGI) with MCF7 breast, with PC-3 prostate, in the experiment on RXF 393 renal and in the experiment with SK-OV-3 ovarian was over 100 µM throughout.

In the case of `Cc1ccc(S(=O)(=O)Oc2nc3ccccc3nc2OS(=O)(=O)c2ccc(C)cc2)cc1`, the TGI in the experiment on DU-145 prostate, in the experiment on EKVX NSCLC, with HCC-2998 colon, in the experiment on HS 578T breast, with HT29 colon and in the experiment with M14 melanoma was over 100 µM throughout. Moreover, the TGI in the experiment with MCF7 breast, with PC-3 prostate, in the experiment with RXF 393 renal and in the experiment with SK-OV-3 ovarian was over 100 µM each time.
